Source: patent US9433659B2, “Enhanced glycemic control using Ad36E4orf1 and AKT1 inhibitor” (priority 2012, dated 2016)

Key:
Assay type in all cases: cell-based
PPARγ [1] = assay: PPARγ protein abundance in 3T3-L1 adipocytes; conditions: 0, 1 or 5 μM ATD
Method: FIG. 10 is a graph showing ATD inhibits PPARγ protein abundance. 3T3-L1 adipocytes were transfected with a null vector (V5), and exposed to 10 μM TZD, or transfected with a plasmid expressing E4orf1 protein. Both groups were exposed to […] ATD.
(§1) 3T3-L1 adipocytes were transfected with a null vector and exposed to 10 μM TZD, or transfected with a plasmid expressing E4orf1 protein. Both groups were exposed to 0, 1 or 5 μM ATD. […] The glucose uptake in adipocytes was PPARγ-dependent in the presence of TZD, but not when induced by E4orf1. Thus, by down-regulating AKT-1 signaling E4orf1 can be used to enhance glucose uptake by adipocytes, without further increasing lipid accumulation.

PPARγ [2] = assay: PPARγ expression by qRT-PCR in E4orf1 and pTRE cells
Method: (§2) Confluent E4orf1 and pTRE cells were exposed to adipogenic media to induce differentiation. In addition the cells were treated with 0 or 5 μM of 2ATD—a specific inhibitor of AKT1 signalling. This media was refreshed every two days for up to nine days. Basal and insulin stimulated 2DG uptake was determined 24 hours post induction in the presence of 1000 ng/ml of doxycycline expression of PPARγ and adiponectin—markers of adipogenesis, by qRT-PCR.

3T3-L1 adipocytes = assay: Glucose uptake in 3T3-L1 adipocytes exposed to ATD; conditions: null vector, 10 μM TZD; increasing concentration of ATD (0, 1 or 5 μM)
Method: as §1

adiponectin = assay: Adiponectin expression by qRT-PCR in E4orf1 and pTRE cells
Method: as §2

3T3-L1 cells = assay: Adipogenic differentiation by oil red O staining in inducible E4orf1 stable cell line; conditions: 3T3-L1 cells expressing Ad36 E4orf1 on doxycycline; 0, 1, or 5 M of 2ATD; up to nine days
Method: FIG. 7A-F are photomicrographs of 3T3-L1 cells. […] FIGS. 7D-F show 3T3-L1 cells that express Ad36 E4orf1 when exposed to doxycycline, treated with 0, 1, or 5 M, respectively, of 2ATD—a specific inhibitor of AKT1 signalling.
3T3-L1 cells that express Ad36 E4orf1 when exposed to doxycycline (10) were generated. […] Confluent E4orf1 and pTRE cells were exposed to adipogenic media to induce differentiation. In addition the cells were treated with 0, 1 or 5 M of 2ATD—a specific inhibitor of AKT1 signalling. This media was refreshed every two days for up to nine days. Adipogenic differentiation was verified by oil red O staining (FIGS. 7A-F).

[3] = tested on: E4orf1 and pTRE inducible stable cells; assay: Basal and insulin stimulated glucose (2DG) uptake in presence of 2-ATD
Method: E4orf1 and pTRE inducible stable cells were exposed to adipogenic media to induce differentiation and treated with 0 or 5 μM of 2-ATD. Basal and insulin stimulated 2DG was determined 24 hours after exposure to doxycycline (1000 ng/ml), in presence or absence of insulin (*p<0.05).

[4] = E4orf1 expressing cells, 0 or 5 μM of 2ATD
[5] = effect of E4orf1 expression (doxycycline 1000 ng/ml), qRT-PCR

Molecule: Nc1nncs1 [2-ATD, 2-Aminothiadiazole]
- PPARγ protein abundance (PPARγ [1]): reduced PPARγ protein abundance
- PPARγ expression (PPARγ [2]; [4]): significantly reduced PPARγ expression
- PPARγ expression (PPARγ [2]; pTRE cells, 0 or 5 μM of 2ATD): significantly reduced PPARγ expression
- glucose uptake (3T3-L1 adipocytes): significantly reduced glucose uptake
- adiponectin expression (adiponectin; [4]): significantly reduced
- adipogenesis and lipid accumulation (oil red O staining) (3T3-L1 cells): blocked adipogenesis and lipid accumulation

B1: E4orf1: Adenovirus-36 E4orf1 protein, SEQ ID NO:2; expressed in 3T3-L1 cells by doxycycline induction or plasmid (protein, listed as Human adenovirus)
chain: MAESLYAFIDSPGGIAPVQEGASNRYIFFCPESFHIPPHGVILLHLRVSVLVPTGYQGRFMALNDYHARGILTQSDVIFAGRRHDLSVLLFNHTDRFLYVREGHPVGTLLLERVIFPSVRIATLV
- PPARγ expression (PPARγ [2]; [5]): significantly increased the expression of PPARγ and adiponectin
- adiponectin expression (adiponectin; [5]): significantly increased the expression of PPARγ and adiponectin
- glucose uptake (2DG) despite 2-ATD treatment ([3]; E4orf1 expressing cells treated with 5 μM of 2-ATD): continued to show significantly greater glucose uptake
- glucose uptake (2DG) ([3]; E4orf1 expression compared to pTRE, 24 hours after doxycycline (1000 ng/ml), basal and insulin stimulated): increased glucose uptake compared to that in pTRE
